ChEMBL document CHEMBL1649393, “Synthesis and antimicrobial activity of thiosemicarbazides, s-triazoles and their Mannich bases bearing 3-chlorophenyl moiety” (2011)
Values after ≈ are worked out from the molar mass of the structure shown.

Columns and labels:
Type in all cases: functional
[1] = system: Staphylococcus aureus; assay: Antimicrobial activity against Staphylococcus aureus ATCC 25923 after 18 hrs by broth microdilution method; details: ATCC 25923, 18 h
[2] = system: Staphylococcus aureus; assay: Antimicrobial activity against Staphylococcus aureus ATCC 6538 after 18 hrs by broth microdilution method; details: ATCC 6538, 18 h
[3] = system: Staphylococcus epidermidis; assay: Antimicrobial activity against Staphylococcus epidermidis ATCC 12228 after 18 hrs by broth microdilution method; details: ATCC 12228, 18 h
[4] = system: Bacillus subtilis; assay: Antimicrobial activity against Bacillus subtilis ATCC […] after 18 hrs by broth microdilution method
[5] = system: Bacillus cereus; assay: Antimicrobial activity against Bacillus cereus ATCC 10876 after 18 hrs by broth microdilution method; details: ATCC 10876, 18 h
[6] = system: Micrococcus luteus; assay: Antimicrobial activity against Micrococcus luteus ATCC 10240 after 18 hrs by broth microdilution method; details: ATCC 10240, 18 h
[7] = system: Escherichia coli; assay: Antimicrobial activity against Escherichia coli ATCC 25922 after 18 hrs by broth microdilution method; details: ATCC 25922, 18 h
[8] = system: Klebsiella pneumoniae; assay: Antimicrobial activity against Klebsiella pneumoniae ATCC 13883 after 18 hrs by broth microdilution method; details: ATCC 13883, 18 h
[9] = system: Proteus mirabilis; assay: Antimicrobial activity against Proteus mirabilis ATCC 12453 after 18 hrs by broth microdilution method; details: ATCC 12453, 18 h
[10] = system: Staphylococcus aureus; assay: Antimicrobial activity against Staphylococcus aureus ATCC 25923 assessed as >99.9 % reduction in CFU after 18 hrs by broth microdilution method; details: ATCC 25923, 18 h
[11] = system: Staphylococcus aureus; assay: Antimicrobial activity against Staphylococcus aureus ATCC 6538 assessed as >99.9 % reduction in CFU after 18 hrs by broth microdilution method; details: ATCC 6538, 18 h
[12] = system: Staphylococcus epidermidis; assay: Antimicrobial activity against Staphylococcus epidermidis ATCC 12228 assessed as >99.9 % reduction in CFU after 18 hrs by broth microdilution method; details: ATCC 12228, 18 h
[13] = system: Bacillus subtilis; assay: Antimicrobial activity against Bacillus subtilis ATCC […] assessed as >99.9 % reduction in CFU after 18 hrs by broth microdilution method
[14] = system: Bacillus cereus; assay: Antimicrobial activity against Bacillus cereus ATCC 10876 assessed as >99.9 % reduction in CFU after 18 hrs by broth microdilution method; details: ATCC 10876, 18 h
[15] = system: Micrococcus luteus; assay: Antimicrobial activity against Micrococcus luteus ATCC 10240 assessed as >99.9 % reduction in CFU after 18 hrs by broth microdilution method; details: ATCC 10240, 18 h
[16] = system: Escherichia coli; assay: Antimicrobial activity against Escherichia coli ATCC 25922 assessed as >99.9 % reduction in CFU after 18 hrs by broth microdilution method; details: ATCC 25922, 18 h
[17] = system: Klebsiella pneumoniae; assay: Antimicrobial activity against Klebsiella pneumoniae ATCC 13883 assessed as >99.9 % reduction in CFU after 18 hrs by broth microdilution method; details: ATCC 13883, 18 h
[18] = system: Proteus mirabilis; assay: Antimicrobial activity against Proteus mirabilis ATCC 12453 assessed as >99.9 % reduction in CFU after 18 hrs by broth microdilution method; details: ATCC 12453, 18 h

SMILES	MIC [1]	MIC [2]	MIC [3]	MIC [4]	MIC [5]	MIC [7]	MBC [10]	MBC [11]	MBC [12]	MBC [13]	MBC [14]	MBC [15]	MBC [16]	MIC [6]	MIC [8]	MIC ([9]; read-out: MIC)	MBC ([17]; read-out: MBC)	MBC ([18]; read-out: MBC)	further results
Fc1cccc(F)c1-n1c(-c2cccc(Cl)c2)nn(CN2CCCC2)c1=S	125 µg/mL (≈ 307 µM)	125 µg/mL (≈ 307 µM)	125 µg/mL (≈ 307 µM)	125 µg/mL (≈ 307 µM)	125 µg/mL (≈ 307 µM)	500 µg/mL (≈ 1230 µM)	500 µg/mL (≈ 1230 µM)	500 µg/mL (≈ 1230 µM)	1000 µg/mL (≈ 2460 µM)	500 µg/mL (≈ 1230 µM)	1000 µg/mL (≈ 2460 µM)	1000 µg/mL (≈ 2460 µM)	1000 µg/mL (≈ 2460 µM)	–	–	–	–	–	MBC [6]: 1000 µg/mL (≈ 2460 µM); MBC [8]: 1000 µg/mL (≈ 2460 µM); MIC [9]: 1000 µg/mL (≈ 2460 µM); MBC [17]: 1000 µg/mL (≈ 2460 µM); MBC [18]: 1000 µg/mL (≈ 2460 µM)
S=c1n(CN2CCCC2)nc(-c2cccc(Cl)c2)n1-c1ccccc1I	500 µg/mL (≈ 1010 µM)	500 µg/mL (≈ 1010 µM)	500 µg/mL (≈ 1010 µM)	250 µg/mL (≈ 503 µM)	500 µg/mL (≈ 1010 µM)	> 1000 µg/mL	> 1000 µg/mL	> 1000 µg/mL	> 1000 µg/mL	> 1000 µg/mL	> 1000 µg/mL	> 1000 µg/mL	> 1000 µg/mL	500 µg/mL (≈ 1010 µM)	> 1000 µg/mL	> 1000 µg/mL	> 1000 µg/mL	> 1000 µg/mL	–
S=c1n(CN2CCCC2)nc(-c2cccc(Cl)c2)n1-c1ccc(Br)cc1	31.2 µg/mL (≈ 69.5 µM)	62.5 µg/mL (≈ 139 µM)	250 µg/mL (≈ 556 µM)	62.5 µg/mL (≈ 139 µM)	62.5 µg/mL (≈ 139 µM)	> 1000 µg/mL	> 1000 µg/mL	> 1000 µg/mL	> 1000 µg/mL	500 µg/mL (≈ 1110 µM)	> 1000 µg/mL	> 1000 µg/mL	> 1000 µg/mL	62.5 µg/mL (≈ 139 µM)	> 1000 µg/mL	> 1000 µg/mL	> 1000 µg/mL	> 1000 µg/mL	–
Cc1ccc(-n2c(-c3cccc(Cl)c3)nn(CN3CCCC3)c2=S)cc1	31.2 µg/mL (≈ 81.2 µM)	62.5 µg/mL (≈ 162 µM)	125 µg/mL (≈ 325 µM)	31.2 µg/mL (≈ 81.2 µM)	125 µg/mL (≈ 325 µM)	> 1000 µg/mL	> 1000 µg/mL	> 1000 µg/mL	> 1000 µg/mL	1000 µg/mL (≈ 2600 µM)	> 1000 µg/mL	> 1000 µg/mL	> 1000 µg/mL	62.5 µg/mL (≈ 162 µM)	> 1000 µg/mL	> 1000 µg/mL	> 1000 µg/mL	> 1000 µg/mL	–
S=c1n(CN2CCCC2)nc(-c2cccc(Cl)c2)n1-c1ccccc1Br	250 µg/mL (≈ 556 µM)	250 µg/mL (≈ 556 µM)	500 µg/mL (≈ 1110 µM)	> 1000 µg/mL	> 1000 µg/mL	> 1000 µg/mL	> 1000 µg/mL	> 1000 µg/mL	> 1000 µg/mL	> 1000 µg/mL	> 1000 µg/mL	> 1000 µg/mL	> 1000 µg/mL	500 µg/mL (≈ 1110 µM)	> 1000 µg/mL	> 1000 µg/mL	> 1000 µg/mL	> 1000 µg/mL	–
Fc1ccc(-n2c(-c3cccc(Cl)c3)nn(CN3CCCC3)c2=S)cc1	125 µg/mL (≈ 321 µM)	125 µg/mL (≈ 321 µM)	125 µg/mL (≈ 321 µM)	125 µg/mL (≈ 321 µM)	250 µg/mL (≈ 643 µM)	500 µg/mL (≈ 1290 µM)	250 µg/mL (≈ 643 µM)	250 µg/mL (≈ 643 µM)	500 µg/mL (≈ 1290 µM)	250 µg/mL (≈ 643 µM)	> 1000 µg/mL	500 µg/mL (≈ 1290 µM)	500 µg/mL (≈ 1290 µM)	125 µg/mL (≈ 321 µM)	500 µg/mL (≈ 1290 µM)	500 µg/mL (≈ 1290 µM)	500 µg/mL (≈ 1290 µM)	1000 µg/mL (≈ 2570 µM)	–
S=c1n(CN2CCCC2)nc(-c2cccc(Cl)c2)n1-c1ccc(I)cc1	125 µg/mL (≈ 252 µM)	250 µg/mL (≈ 503 µM)	250 µg/mL (≈ 503 µM)	125 µg/mL (≈ 252 µM)	125 µg/mL (≈ 252 µM)	> 1000 µg/mL	1000 µg/mL (≈ 2010 µM)	1000 µg/mL (≈ 2010 µM)	> 1000 µg/mL	1000 µg/mL (≈ 2010 µM)	> 1000 µg/mL	> 1000 µg/mL	> 1000 µg/mL	125 µg/mL (≈ 252 µM)	1000 µg/mL (≈ 2010 µM)	> 1000 µg/mL	> 1000 µg/mL	> 1000 µg/mL	–
S=c1n(CN2CCCC2)nc(-c2cccc(Cl)c2)n1-c1ccc(Cl)cc1	125 µg/mL (≈ 308 µM)	> 1000 µg/mL	1000 µg/mL (≈ 2470 µM)	125 µg/mL (≈ 308 µM)	125 µg/mL (≈ 308 µM)	1000 µg/mL (≈ 2470 µM)	125 µg/mL (≈ 308 µM)	> 1000 µg/mL	1000 µg/mL (≈ 2470 µM)	> 1000 µg/mL	> 1000 µg/mL	1000 µg/mL (≈ 2470 µM)	1000 µg/mL (≈ 2470 µM)	1000 µg/mL (≈ 2470 µM)	500 µg/mL (≈ 1230 µM)	> 1000 µg/mL	1000 µg/mL (≈ 2470 µM)	> 1000 µg/mL	–
COc1ccc(-n2c(-c3cccc(Cl)c3)nn(CN3CCCC3)c2=S)cc1	125 µg/mL (≈ 312 µM)	250 µg/mL (≈ 624 µM)	250 µg/mL (≈ 624 µM)	250 µg/mL (≈ 624 µM)	125 µg/mL (≈ 312 µM)	250 µg/mL (≈ 624 µM)	500 µg/mL (≈ 1250 µM)	500 µg/mL (≈ 1250 µM)	1000 µg/mL (≈ 2490 µM)	500 µg/mL (≈ 1250 µM)	> 1000 µg/mL	1000 µg/mL (≈ 2490 µM)	500 µg/mL (≈ 1250 µM)	125 µg/mL (≈ 312 µM)	250 µg/mL (≈ 624 µM)	500 µg/mL (≈ 1250 µM)	500 µg/mL (≈ 1250 µM)	> 1000 µg/mL	–
